Data: publication PMC10787358 (Science translational medicine, 2023)
pIC50: −log10 of the molar value. “Also recorded” adds a separate entry of the source. Residues, ends and D or L forms follow the SMILES beside them. *: point of attachment. Cbz = O=C(OCc1ccccc1)*

Legend:
SARS-CoV PLpro = details: cited from earlier work
USP2 = USP2 (Homo sapiens, UniProt O75604); assay: In vitro USP2 activity assay; assay type: biochemical
SARS-CoV-2 PLpro [1] = assay: PLpro-dependent ACE2 deubiquitination and ACE2 abundance in cells; assay type: cell-based
ACE2 protein = assay: Immunoblot of ACE2 protein abundance in cell lines; assay type: cell-based, human; details: for reduction of ACE2 protein abundance: Calu-3, HepG2 and H1650 cells, 48 h
SARS-CoV-2 WT [2] = assay: TCID50 assay, authentic SARS-CoV-2 WT in pretreated Calu-3 cells; assay type: cell-based; details: Calu-3 cells pretreated 48 h, MOI 0.01, TCID50 over time
hCoV-NL63 = assay: Cytopathic effect; assay type: cell-based; details: CPE assay; for inhibition of hCoV-NL63 infection: ACE2-dependent coronavirus
hCoV-OC43 [3] = assay: Cytopathic effect; assay type: cell-based; details: CPE assay, ACE2-independent strain
hCoV-OC43 [4] = assay: RT-qPCR of hCoV-OC43 in Huh7 cells; assay type: cell-based; details: Huh7 cells preinfected MOI 2 for 24 h, ML364 4 or 10 μM for 48 h
SARS-CoV-2 PLpro [5] = molecular target: SARS-CoV-2 PLpro (Severe acute respiratory syndrome coronavirus 2, UniProt P0DTD1); assay: SARS-CoV-2 PLpro enzymatic activity assay; assay type: biochemical; details: in vitro
MERS-CoV pseudotype = assay type: cell-based
pseudotyped SARS-CoV-2 = assay type: cell-based; details: for pseudotype entry of SARS-CoV-2 after 48 h pretreatment: ML364 5 μM, UDCA plus ZGG 10 μM, Calu-3, HepG2, H1650
[6] = system: ACE2-dependent bat sarbecoviruses; assay type: cell-based
C57BL/6 mice = assay: 2-week tolerability study in male C57BL/6 mice; assay type: in vivo, mouse
SARS-CoV-2 WT [7] = assay type: in vivo, K18-hACE2 transgenic mice; details: 50 mg/kg daily
SARS-CoV-2 = assay type: in vivo, K18-hACE2 transgenic mice
cyclin D1 / cell cycle = assay: TMT-based quantitative proteomic analysis and cell cycle analysis; set-up: species or system human
[8] = system: SARS-CoV-2 Omicron BA.2 sublineage; set-up: species or system K18-hACE2 transgenic mice; details: mouse, in vivo
SARS-CoV-2 WT [9] = assay: TCID50 assay, SARS-CoV-2 WT in NHBE cells; assay type: cell-based; details: preinfected MOI 0.01 for 1 h, 10 μM, 48 h
[10] = 50 mg/kg once a day or 35 mg/kg twice a day, 2 weeks

USP2, sequence (O75604 whole entry): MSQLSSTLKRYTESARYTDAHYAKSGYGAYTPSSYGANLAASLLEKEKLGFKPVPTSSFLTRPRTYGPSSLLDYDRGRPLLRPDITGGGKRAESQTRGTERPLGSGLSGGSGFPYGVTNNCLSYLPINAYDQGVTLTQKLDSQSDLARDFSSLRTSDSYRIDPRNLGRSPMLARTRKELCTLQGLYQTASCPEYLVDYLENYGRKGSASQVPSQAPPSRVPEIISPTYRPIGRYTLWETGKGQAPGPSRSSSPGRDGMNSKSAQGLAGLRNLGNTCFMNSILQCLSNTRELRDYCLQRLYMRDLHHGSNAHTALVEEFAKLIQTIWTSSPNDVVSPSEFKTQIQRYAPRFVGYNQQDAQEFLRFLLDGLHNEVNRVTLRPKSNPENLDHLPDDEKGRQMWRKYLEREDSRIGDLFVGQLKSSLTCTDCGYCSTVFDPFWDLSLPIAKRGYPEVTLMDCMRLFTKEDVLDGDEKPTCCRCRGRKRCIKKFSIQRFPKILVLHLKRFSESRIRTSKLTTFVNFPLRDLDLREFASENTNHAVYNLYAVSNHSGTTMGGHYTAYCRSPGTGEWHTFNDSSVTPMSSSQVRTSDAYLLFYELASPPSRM

For `S=c1nc[nH]c2nc[nH]c12` [6MP], the “SARS-CoV PLpro protease activity” value (SARS-CoV PLpro) is given as “inhibit”.
In the case of `Nc1nc2[nH]cnc2c(=S)[nH]1` [6TG], the “SARS-CoV PLpro protease activity” value (SARS-CoV PLpro) is given as “inhibit”.
In the case of `Cc1ccc(N)cc1C(=O)N[C@H](C)c1cccc2ccccc12` [GRL0617], the “activity toward USP2” value (USP2; even at 100 μM) was “no obvious activity”, the “infection-induced reduction of ACE2” value (SARS-CoV-2 PLpro [1]) was “failed to prevent the infection-induced reduction of ACE2” and the “PLpro-induced ACE2 deubiquitination” value (SARS-CoV-2 PLpro [1]; in cells) was “diminished PLpro-induced ACE2 deubiquitination”.
For `CC(C)C[C@@H](C=O)NC(=O)[C@H](CC(C)C)NC(=O)[C@H](CC(C)C)NC(=O)OCc1ccccc1` [MG132] (Cbz-Leu-Leu-Leu-aldehyde), the ACE2 protein accumulation (ACE2 protein; HepG2 cells with cycloheximide) was “noticeable ACE2 protein accumulation”.
For `Cc1ccc(S(=O)(=O)Nc2cc(C(F)(F)F)ccc2C(=O)Nc2nc(-c3ccccc3)cs2)cc1` [ML364], the “viral replication of SARS-CoV-2 WT” value (SARS-CoV-2 WT [2]) was “obvious reduction”, the “inhibition of hCoV-NL63 infection” value (hCoV-NL63) was “effective” and the pIC50 (hCoV-NL63; read-out: IC50 against hCoV-NL63) was roughly 6.74. For the same compound, the “inhibition of hCoV-OC43 infection” value (hCoV-OC43 [3]) was “limited or no activity”, the “activity against hCoV-OC43” value (hCoV-OC43 [4]) was “did not observe any activity” and the “reduction of ACE2 protein abundance” value (ACE2 protein) was “reductions in ACE2 protein in all three cell lines”. For the same compound, the “ACE2 protein abundance decrease” value (ACE2 protein; HepG2, 10 μM, within 12 hours of treatment) was 50%, the “inhibition of USP2 activity” value (USP2) was “inhibited USP2 activity” and the “inhibition of SARS-CoV-2 PLpro” value (SARS-CoV-2 PLpro [5]) was “inhibitory effects”. For the same compound, the “entry of MERS-CoV pseudotype” value (MERS-CoV pseudotype) was “did not prevent the entry”, the “SARS-CoV-2 pseudovirus entry into cells” value (pseudotyped SARS-CoV-2; HepG2, ML364 5 μM) was “obvious reduction” and the “pseudotype entry of SARS-CoV-2 after 48 h pretreatment” value (pseudotyped SARS-CoV-2) was “prevented the pseudotype entry”. For the same compound, the “pseudotype entry of ACE2-dependent bat sarbecoviruses” value [6] was “promising activity”, the clinical signs (C57BL/6 mice; [10]) was “healthy without any clinical signs” and the “plasma angiotensin-(1-7) concentration” value (C57BL/6 mice; [10]) was “did not lead to any noticeable reduction”. For the same compound, the “ACE2 protein abundance in mouse tissues” value (C57BL/6 mice; pancreas, small intestine and lung of C57BL/6 mice) was “reduced abundance of ACE2 protein”, the “ACE2 protein abundance in the lungs” value (SARS-CoV-2 WT [7]) was “significantly (P = 0.01) reduced” and the “viral loads in the lungs” value (SARS-CoV-2 WT [7]; 4 days before 6-day challenge) was “significant (P = 3.6 × 10^−6) decrease”. For the same compound, the “lung pathology (H&E)” value (SARS-CoV-2 WT [7]; versus vehicle) was “reduction in overall lung pathology”, the “viral titers and SARS-CoV-2 E gene in lungs and small intestines” value (SARS-CoV-2; administration 6 hours after infection) was “decrease in viral titers” and the lung pathology (SARS-CoV-2; administration 6 hours after infection, versus vehicle) was “improved lung pathology”. For the same compound, the cell cycle effect (cyclin D1 / cell cycle) was “primarily cell cycle arrest”, the “cyclin D1 protein (TMT)” value (cyclin D1 / cell cycle; TMT-based proteomics) was “significant (P = 3.3 × 10^−6) decrease” and the “time of peak plasma concentration” value (single intraperitoneal dose, male C57BL/6 mice) was 30 min. The “cytotoxicity by LDH release” value (HepG2 and Calu-3 cells) was “minimal cytotoxicity”.
With `Cc1ccc(S(=O)(=O)Nc2ccc(C(F)(F)F)cc2C(=O)Nc2nc(-c3ccc(Br)cc3)cs2)cc1` [MS102] the “inhibition of hCoV-NL63 infection” value (hCoV-NL63) was “effective”, the “inhibition of hCoV-OC43 infection” value (hCoV-OC43 [3]) was “limited or no activity” and the “inhibition of USP2 activity” value (USP2) was “slightly enhanced activity”. The “entry of ACE2-dependent pseudotypes compared with ML364” value (pseudotyped SARS-CoV-2; HepG2, 5 μM, 24 h pretreatment) was “enhanced activity”, the “therapeutic efficacy (TCID50, lung pathology) compared with ML364” value (SARS-CoV-2; mouse, in vivo) was “enhanced efficacy compared with ML364” and the “survival extension versus vehicle-treated control” value [8] was 3 days. For the same compound, the “blocking infection of NHBE cells compared with ML364” value (SARS-CoV-2 WT [9]) was “improved efficacy”, the “peak plasma concentration relative to ML364” value (C57BL/6 mice) was “approximately threefold” and the “plasma concentration 24 hours after administration relative to ML364” value (C57BL/6 mice) was “approximately 2500 times”. For the same compound, the oral bioavailability (male C57BL/6 mice, p.o. 50 mg/kg, i.v. 5 mg/kg) was roughly 100% and the “cytotoxicity by LDH release” value (HepG2 and Calu-3 cells) was “minimal cytotoxicity”.
In the case of `CC(O)c1cc(C(=O)N[C@@H](C)Cn2ccc(-c3ccc(C#N)c(Cl)c3)n2)[nH]n1` (some centres unmarked) [ODM-201], the “reduction of ACE2 protein abundance” value (ACE2 protein) was “mild efficacy”.
With `C[C@H](CCC(=O)O)[C@H]1CC[C@H]2[C@@H]3[C@@H](O)C[C@@H]4C[C@H](O)CC[C@]4(C)[C@H]3CC[C@]12C` [UDCA, ursodeoxycholic acid] the “inhibition of hCoV-NL63 infection” value (hCoV-NL63) was “no inhibitory activity”, the “inhibition of hCoV-OC43 infection” value (hCoV-OC43 [3]) was “no inhibitory activity” and the “reduction of ACE2 protein abundance” value (ACE2 protein) was “only mildly reduced ACE2 protein”. For the same compound, the “pseudotype entry of SARS-CoV-2 after 48 h pretreatment” value (pseudotyped SARS-CoV-2) was “only showed mild effects; also recorded: mild effect”.
With `C/C=C1\C(=O)C[C@H]2[C@@H]3CCC4=CC(=O)CC[C@]4(C)[C@H]3CC[C@]12C` [ZGG, z-guggulsterone] the “pseudotype entry of SARS-CoV-2 after 48 h pretreatment” value (pseudotyped SARS-CoV-2) was “only showed mild effects”.
In the case of `CCC(CC)COC(=O)[C@H](C)N[P@](=O)(OC[C@H]1O[C@@](C#N)(c2ccc3c(N)ncnn23)[C@H](O)[C@@H]1O)Oc1ccccc1` [remdesivir], the “inhibition of hCoV-NL63 infection” value (hCoV-NL63) was “active” and the “inhibition of hCoV-OC43 infection” value (hCoV-OC43 [3]) was “active”.
